# Like-named read-outs stand apart in the source and are kept apart here.
# Columns and labels:
# [1] = Hygroscopicity test (DVS); type: physicochemical; conditions: for hygroscopicity (in words): 80% RH at 25° C.; for hygroscopic weight gain: humidity increases to 80% RH at 25° C.
# Description: The Dynamic Vapor Sorption (DVS) curve: acquired on the DVS Intrinsic of Surface Measurement Systems. The relative humidity at […] is corrected with the deliquescence points of LiCl, Mg (NO3)2 and KCl.
# [2] = Solubility experiment; type: physicochemical; conditions: for solubility in aqueous medium (summary): aqueous media of Table 6
# [3] = Stability experiment: crystal form by XRD; type: physicochemical
# Description: (§1) 1. Stability experiment of crystal form A and crystal form B-1 • (A) An appropriate amount of samples were weighed respectively and placed open at room temperature and under accelerated conditions (40° C./75% RH), on day 0, 7, 14, and 28 • (B) Crystal form A was placed in an oven at 60° C., on day 14, 32.
# (§2) The content and related substance changes were detected by HPLC, and XRD was measured at the same time to investigate stability of the crystal forms.
# [4] = Stability experiment: content and related substance by HPLC; type: physicochemical
# Description: as §1, §2
# [5] = Thermogravimetric analysis; type: physicochemical; conditions: under 50° C.-90° C.
# Source text: TGA and DSC pattern: TGA and DSC pattern were collected on TA Q500/5000 thermogravimetric analyzer and TA Q200/2000 differential scanning calorimeter respectively.
# [6] = molecular target: T1, CDK1 (Homo sapiens, UniProt P06493); test: Kinase test in vitro (LANCE Ultra, Ulight-4EBP1); type: biochemical
# T1 construct: purchased BPS
# Source text: (§3) Recombinant CDK1, CCNB1 and CDK9, and CCNT were purchased from BPS; CDK2, CCNA1, CDK4, CCND1 and CDK6, and CCND1 were purchased from Invitrogen; CDK4, CycD3 and CDK6, and CycD3 were purchased from Carna. Adenosine triphosphate (ATP) was purchased from Life tech. Substrate Ulight-4EBP1 and the corresponding detection antibody were purchased from Perkinelmer. LANCE Ultra system from Perkinelmer is used as the detection system.
# (§4) In the kinase test, a compound to be tested was 1:3 diluted for 8 gradient points and added into a reaction plate, and then an appropriate amount of recombinase was added. A buffer [50 mM HEPES pH7.5, 10 mM MgCl2, 3 mM MnCl2, 1 mM EGTA, 0.01% Tween-20, 1 mM TCEP] containing ATP, Ulight-4EBP1 premix at a predetermined concentration was subsequently added, and the kinase reaction began at room temperature. A test solution pre-mixed with 10 mM EDTA and detection antibody was added after a suitable reaction time, and then the fluorescence value was read on Tecan infinite pro after reacting for 1 hour at room temperature. The IC50 was calculated using a four-factor model fitting in a XLfit software.
# [7] = molecular target: T2, CDK4 (Homo sapiens, UniProt P11802); test: Kinase test in vitro (LANCE Ultra, Ulight-4EBP1); type: biochemical
# T2 construct: purchased Invitrogen or Carna
# Source text: as §3, §4
# [8] = molecular target: T3, CDK6 (Homo sapiens, UniProt Q00534); test: Kinase test in vitro (LANCE Ultra, Ulight-4EBP1); type: biochemical
# T3 construct: purchased Invitrogen or Carna
# Source text: as §3, §4
# [9] = molecular target: T4, CDK2 (Homo sapiens, UniProt P24941); test: Kinase test in vitro (LANCE Ultra, Ulight-4EBP1); type: biochemical
# T4 construct: purchased Invitrogen
# Source text: as §3, §4
# [10] = 0.1 M HCl, calculated for crystal form I
# [11] = Acetone, calculated for crystal form I
# [12] = Acetonitrile, calculated for crystal form I
# [13] = Ethanol, calculated for crystal form I
# [14] = Ethyl acetate, calculated for crystal form I
# [15] = H2O, calculated for crystal form I
# [16] = Isopropanol, calculated for crystal form I
# [17] = Methanol, calculated for crystal form I
# [18] = Tetrahydrofuran, calculated for crystal form I
# [19] = medium pH4.5, calculated for crystal form I
# [20] = medium pH6.8, calculated for crystal form I
# [21] = medium pH7.4, calculated for crystal form I
# [22] = accelerated conditions for 28 days
# [23] = accelerated conditions 40° C./75% RH, open, on day 7
# [24] = accelerated conditions 40° C./75% RH, open, on day 14
# [25] = accelerated conditions 40° C./75% RH, open, on day 28
# [26] = accelerated conditions 40° C./75% RH, open, on day 28, footnote: content obviously higher, measurement has errors
# [27] = room temperature and accelerated conditions (40° C./75% RH), up to 28 days
# [28] = room temperature, open, on day 7
# [29] = room temperature, open, on day 14
# [30] = room temperature, open, on day 28
# [31] = room temperature, open, on day 28, footnote: content obviously higher, measurement has errors
# T2 sequence (P11802 whole entry): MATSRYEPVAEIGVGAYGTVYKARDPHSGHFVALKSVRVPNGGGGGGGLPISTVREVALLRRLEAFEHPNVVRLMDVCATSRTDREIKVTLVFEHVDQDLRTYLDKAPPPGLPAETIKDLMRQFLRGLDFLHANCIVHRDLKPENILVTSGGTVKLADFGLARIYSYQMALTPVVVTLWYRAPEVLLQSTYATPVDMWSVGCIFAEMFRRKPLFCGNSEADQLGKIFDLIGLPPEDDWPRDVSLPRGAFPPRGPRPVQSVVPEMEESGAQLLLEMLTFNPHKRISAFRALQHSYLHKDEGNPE
# T2 sequence (P24385 whole entry partner): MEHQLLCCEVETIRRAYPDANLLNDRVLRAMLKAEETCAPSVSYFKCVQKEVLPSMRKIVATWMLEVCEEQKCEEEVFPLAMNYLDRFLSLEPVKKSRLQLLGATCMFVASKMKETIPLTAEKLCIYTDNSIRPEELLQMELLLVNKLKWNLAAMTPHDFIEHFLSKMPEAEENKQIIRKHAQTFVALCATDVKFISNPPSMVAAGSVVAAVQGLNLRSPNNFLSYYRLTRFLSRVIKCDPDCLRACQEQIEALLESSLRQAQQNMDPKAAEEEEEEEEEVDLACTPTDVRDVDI
# T1 sequence (P06493 whole entry): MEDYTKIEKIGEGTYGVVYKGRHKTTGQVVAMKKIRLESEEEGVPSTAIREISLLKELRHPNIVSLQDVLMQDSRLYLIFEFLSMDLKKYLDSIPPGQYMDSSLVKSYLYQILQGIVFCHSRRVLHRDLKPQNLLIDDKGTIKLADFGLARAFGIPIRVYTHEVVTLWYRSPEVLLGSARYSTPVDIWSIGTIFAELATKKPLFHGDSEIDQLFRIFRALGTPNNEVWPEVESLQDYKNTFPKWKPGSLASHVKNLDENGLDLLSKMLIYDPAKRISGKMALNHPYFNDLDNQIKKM
# T1 sequence (P14635 whole entry partner): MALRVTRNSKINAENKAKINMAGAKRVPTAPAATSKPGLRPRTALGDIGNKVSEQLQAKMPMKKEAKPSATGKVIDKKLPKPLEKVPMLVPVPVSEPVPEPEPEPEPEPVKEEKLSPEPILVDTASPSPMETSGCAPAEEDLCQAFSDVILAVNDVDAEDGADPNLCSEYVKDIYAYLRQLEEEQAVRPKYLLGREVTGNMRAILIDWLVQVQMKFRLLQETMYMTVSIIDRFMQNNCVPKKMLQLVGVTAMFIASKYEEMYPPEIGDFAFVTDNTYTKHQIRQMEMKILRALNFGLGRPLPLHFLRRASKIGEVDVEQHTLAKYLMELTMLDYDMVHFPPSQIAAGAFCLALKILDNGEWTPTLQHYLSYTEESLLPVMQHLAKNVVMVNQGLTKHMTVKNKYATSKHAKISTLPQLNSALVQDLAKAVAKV
# T3 sequence (Q00534 whole entry): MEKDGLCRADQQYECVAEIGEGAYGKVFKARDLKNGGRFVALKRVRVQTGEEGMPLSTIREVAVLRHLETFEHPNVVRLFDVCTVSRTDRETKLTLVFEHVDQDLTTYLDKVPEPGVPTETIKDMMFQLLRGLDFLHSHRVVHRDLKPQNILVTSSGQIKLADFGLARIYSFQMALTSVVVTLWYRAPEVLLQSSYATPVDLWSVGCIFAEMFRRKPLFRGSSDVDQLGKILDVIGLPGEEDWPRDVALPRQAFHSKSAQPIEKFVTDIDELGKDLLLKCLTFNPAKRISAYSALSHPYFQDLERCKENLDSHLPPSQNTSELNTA
# T3 sequence (P24385 whole entry partner): as the sequence (P24385 whole entry partner) above
Structure (SMILES),hygroscopicity (in words) [1],hygroscopic weight gain [1],solubility ranking of the crystal forms (in words) [2],"Solubility [2, 10]","Solubility [2, 11]","Solubility [2, 12]","Solubility [2, 13]","Solubility [2, 14]","Solubility [2, 15]","Solubility [2, 16]","Solubility [2, 17]","Solubility [2, 18]","Solubility [2, 19]","Solubility [2, 20]","Solubility [2, 21]",solubility in aqueous medium (summary) [2],"crystal form stability by XRD (in words) [3, 22]","Content [4, 23]","Impurity peak [4, 23]","Content [4, 24]",other results
CCN1CCN(Cc2ccc(Nc3ncc4c(n3)-c3c(nc(C5CC5)n3C(C)C)C4)nc2)CC1 [Crystal form K-1],very hygroscopic,30.74%,the best solubility,>44.74 mg/mL,11.47 mg/mL,>16.64 mg/mL,>41.86 mg/mL,11.48 mg/mL,>38.91 mg/mL,>42.89 mg/mL,>30.41 mg/mL,39.09 mg/mL,>35.09 mg/mL,>33.57 mg/mL,>38.78 mg/mL,,,,,,"Solubility ([2]; thermodynamic from solid, all solvents and media of Table 6, read-out: solubility in organic solvents and aqueous medium (summary)): 11 to 45 mg/mL"
"Cc1c2c(nn1C)CCc1cnc(Nc3ccc(N4CCN(C)CC4)cc3)nc1-2 [compound 1, reference compound]",,,,,,,,,,,,,,,,,,,,,IC50 [6]: 93 nM; inhibitory activity against CDK1 (in words) [6]: strong inhibitory activity; IC50 [7]: 8 nM; inhibitory activity against CDK4 (in words) [7]: strong inhibitory activity; IC50 [8]: 53 nM; inhibitory activity against CDK6 (in words) [8]: strong inhibitory activity; IC50 [9]: 23 nM; inhibitory activity against CDK2 (in words) [9]: strong inhibitory activity

# The next lines start with results.
hygroscopicity (in words) [1],hygroscopic weight gain [1],solubility ranking of the crystal forms (in words) [2],"Solubility [2, 10]","Solubility [2, 11]","Solubility [2, 12]","Solubility [2, 13]","Solubility [2, 14]","Solubility [2, 15]","Solubility [2, 16]","Solubility [2, 17]","Solubility [2, 18]","Solubility [2, 19]","Solubility [2, 20]","Solubility [2, 21]",solubility in aqueous medium (summary) [2],"crystal form stability by XRD (in words) [3, 22]","Content [4, 23]","Impurity peak [4, 23]","Content [4, 24]",Structure (SMILES),other results
slightly hygroscopic,0.613%,,>58.10 mg/mL,0.23 mg/mL,0.22 mg/mL,6.97 mg/mL,0.03 mg/mL,11.59 mg/mL,0.26 mg/mL,41.04 mg/mL,0.15 mg/mL,14.30 mg/mL,19.66 mg/mL,17.86 mg/mL,more than 11 mg/ml,crystal form is stable,100.97%,none,104.46%,CCN1CCN(Cc2ccc(Nc3ncc4c(n3)-c3c(nc(C5CC5)n3C(C)C)C4)nc2)CC1 [Crystal form A],"crystal form stability by XRD (in words) ([3]; high temperature of 60° C. for 14 days and 32 days): not transformed; chemical stability (in words) ([4]; 60° C., 14 and 32 days): chemical properties are stable; Impurity peak [4, 24]: none; Impurity peak [4, 25]: none; Content [4, 26]: 113.75%; Content ([4]; on day 0): 103.14%; Impurity peak ([4]; on day 0): none; Content ([4]; oven at 60° C., on day 14): 106.2%; Impurity peak ([4]; oven at 60° C., on day 14): none; Content ([4]; oven at 60° C., on day 32): 104.5%; Impurity peak ([4]; oven at 60° C., on day 32): none; chemical stability (in words) [4, 27]: chemical properties are stable; Content [4, 28]: 103.82%; Impurity peak [4, 28]: none; Content [4, 29]: 104.20%; Impurity peak [4, 29]: none; Impurity peak [4, 30]: none; Content [4, 31]: 116.27%"
has hygroscopicity,8.84%,the lowest solubility,,>5 mg/mL,>1 mg/mL,>50 mg/mL,>10 mg/mL,0.36 mg/mL,>20 mg/mL,>100 mg/mL,>100 mg/mL,9.66 mg/mL,2.85 mg/mL,1.08 mg/mL,,,,,,CCN1CCN(Cc2ccc(Nc3ncc4c(n3)-c3c(nc(C5CC5)n3C(C)C)C4)nc2)CC1 [Crystal form I],"Solubility ([2]; 0.1 M HCl, simulated gastric fluid, thermodynamic from solid, 0.1 M HCl, calculated for crystal form I, read-out: Solubility): 34.7 mg/mL; Solubility ([2]; 50% acetonitrile, aqueous with cosolvent or surfactant or cyclodextrin, thermodynamic from solid, 50% Acetonitrile, calculated for crystal form I, read-out: Solubility): > 25 mg/mL; Solubility ([2]; dimethyl sulfoxide, organic solvent or mixture, thermodynamic from solid, Dimethyl sulfoxide, calculated for crystal form I, read-out: Solubility): > 6.6 mg/mL; Solubility ([2]; methyl tert-butyl ether, organic solvent or mixture, thermodynamic from solid, Methyl tert-butyl ether, calculated for crystal form I, read-out: Solubility): > 2 mg/mL; Solubility ([2]; n-heptane, organic solvent or mixture, thermodynamic from solid, N-heptane, calculated for crystal form I, read-out: Solubility): < 2 mg/mL"
has hygroscopicity,6.88%,,>40.10 mg/mL,>41.11 mg/mL,0.28 mg/mL,19.59 mg/mL,0.02 mg/mL,>40.85 mg/mL,0.58 mg/mL,>45.19 mg/mL,0.39 mg/mL,>29.40 mg/mL,>27.40 mg/mL,>25.65 mg/mL,more than 25 mg/ml,crystal form is stable,94.36%,none,95.19%,CCN1CCN(Cc2ccc(Nc3ncc4c(n3)-c3c(nc(C5CC5)n3C(C)C)C4)nc2)CC1 [Crystal form B-1],"weight loss (TGA) [5]: about 7.4%; Impurity peak [4, 24]: none; Impurity peak [4, 25]: none; Content [4, 26]: 110.05%; Content ([4]; on day 0): 94.43%; Impurity peak ([4]; on day 0): none; chemical stability (in words) [4, 27]: chemical properties are stable; Content [4, 28]: 96.50%; Impurity peak [4, 28]: none; Content [4, 29]: 96.45%; Impurity peak [4, 29]: none; Impurity peak [4, 30]: none; Content [4, 31]: 107.12%"

# From US20210214358A1, “CDK4/6 INHIBITOR AND PHARMACEUTICALLY ACCEPTABLE SALT AND POLYMORPH THEREOF AND USE THEREOF” (SHANGHAI HAIYAN PHARMACEUTICAL TECHNOLOGY CO., LTD., priority 2018, published 2021)
